The assay concerns the target human NLRP3 (Homo sapiens (Human), UniProt Q96P20). Description: Scintillation Proximity (SPA) NLRP3 Assay: displacement of 3H-MCC950. The format is binding. To be noted: displacement of 3H-MCC950; read-out: SPA IC50. On the technique in general: Scintillation proximity formats need no separation of bound from free tracer.
Sequence of human NLRP3 (Q96P20 whole entry): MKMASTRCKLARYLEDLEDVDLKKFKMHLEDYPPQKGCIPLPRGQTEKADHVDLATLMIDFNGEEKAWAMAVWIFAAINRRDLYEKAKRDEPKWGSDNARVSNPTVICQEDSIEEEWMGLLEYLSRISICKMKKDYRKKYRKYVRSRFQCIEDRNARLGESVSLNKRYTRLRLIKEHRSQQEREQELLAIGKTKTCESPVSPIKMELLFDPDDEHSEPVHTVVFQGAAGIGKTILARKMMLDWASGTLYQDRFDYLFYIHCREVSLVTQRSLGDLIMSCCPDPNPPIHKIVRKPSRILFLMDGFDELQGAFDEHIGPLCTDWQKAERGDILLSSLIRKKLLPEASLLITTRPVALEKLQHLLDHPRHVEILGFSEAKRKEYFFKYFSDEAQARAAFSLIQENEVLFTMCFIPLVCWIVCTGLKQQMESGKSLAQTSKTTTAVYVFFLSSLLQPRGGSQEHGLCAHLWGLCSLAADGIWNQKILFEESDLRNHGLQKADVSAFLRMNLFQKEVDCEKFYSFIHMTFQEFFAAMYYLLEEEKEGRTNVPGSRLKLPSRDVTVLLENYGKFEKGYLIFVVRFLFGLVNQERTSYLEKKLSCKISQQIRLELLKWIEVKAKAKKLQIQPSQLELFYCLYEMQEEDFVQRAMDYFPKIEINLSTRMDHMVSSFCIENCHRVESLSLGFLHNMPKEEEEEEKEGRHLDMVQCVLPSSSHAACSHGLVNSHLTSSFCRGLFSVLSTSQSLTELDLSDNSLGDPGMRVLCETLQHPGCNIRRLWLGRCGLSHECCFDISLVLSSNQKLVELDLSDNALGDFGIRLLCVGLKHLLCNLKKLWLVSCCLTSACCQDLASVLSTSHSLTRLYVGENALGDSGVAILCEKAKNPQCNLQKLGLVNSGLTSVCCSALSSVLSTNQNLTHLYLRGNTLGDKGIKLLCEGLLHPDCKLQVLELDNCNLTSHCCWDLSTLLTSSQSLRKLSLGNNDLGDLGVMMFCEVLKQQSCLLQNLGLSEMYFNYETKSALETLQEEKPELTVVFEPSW
With `C[C@@H]1CCN(c2nnn[nH]2)C[C@@H](NC(=O)C2(c3ccc(C4CC4)cc3)CC2)C1` (single isomer, unassigned) [2B*], the IC50 (as a rule, the concentration needed to halve the response being measured) lay within 1 to 10 µM.
The same measure for `C[C@H]1CCN(c2nnn[nH]2)C[C@H](NC(=O)C2(c3ccc(C4CC4)cc3)CC2)C1` (single isomer, unassigned) [2C*]: 10 to 50 µM.
The same measure for `C[C@H]1CCN(c2nnn[nH]2)C[C@@H](NC(=O)C2(c3ccc(C4CC4)cc3)CC2)C1` (single isomer, unassigned) [2D*]: 1 to 10 µM; for `C[C@@H]1CCN(c2nnn[nH]2)C[C@@H](NC(=O)C2(c3ccc(OC(F)F)cc3F)CC2)C1` (single isomer, unassigned) [3B*]: 1 to 10 µM.
As for `C[C@H]1CCN(c2nnn[nH]2)C[C@H](NC(=O)C2(c3ccc(OC(F)F)cc3F)CC2)C1` (single isomer, unassigned) [3C*], the IC50 is more than 100 µM.
The same measure for `C[C@H]1CCN(c2nnn[nH]2)C[C@@H](NC(=O)C2(c3ccc(OC(F)F)cc3F)CC2)C1` (single isomer, unassigned) [3D*]: 1 to 10 µM; for `C[C@@H]1CCN(c2nnn[nH]2)C[C@@H](NC(=O)C2(c3ccc(Cl)c(F)c3F)CC2)C1` (single isomer, unassigned) [4B*, 1-(4-chloro-2,3-difluorophenyl)-N-(5-methyl-1-(1H-tetrazol-5-yl)azepan-3-yl)cyclopropane-1-carboxamide]: 10 to 50 µM.
The same measure for `C[C@H]1CCN(c2nnn[nH]2)C[C@H](NC(=O)C2(c3ccc(Cl)c(F)c3F)CC2)C1` (single isomer, unassigned) [4C*, 1-(4-chloro-2,3-difluorophenyl)-N-(5-methyl-1-(1H-tetrazol-5-yl)azepan-3-yl)cyclopropane-1-carboxamide]: 50 to 100 µM; for `C[C@H]1CCN(c2nnn[nH]2)C[C@@H](NC(=O)C2(c3ccc(Cl)c(F)c3F)CC2)C1` (single isomer, unassigned) [4D*, 1-(4-chloro-2,3-difluorophenyl)-N-(5-methyl-1-(1H-tetrazol-5-yl)azepan-3-yl)cyclopropane-1-carboxamide]: 1 to 10 µM; for `C[C@@H]1CCN(c2nnn[nH]2)C[C@@H](NC(=O)C2(c3ccc(C(F)F)cc3)CC2)C1` (single isomer, unassigned) [5B*, 1-(4-(difluoromethyl)phenyl)-N-(5-methyl-1-(1H-tetrazol-5-yl)azepan-3-yl)cyclopropane-1-carboxamide]: 10 to 50 µM.
In the case of `C[C@H]1CCN(c2nnn[nH]2)C[C@H](NC(=O)C2(c3ccc(C(F)F)cc3)CC2)C1` (single isomer, unassigned) [5C*, 1-(4-(difluoromethyl)phenyl)-N-(5-methyl-1-(1H-tetrazol-5-yl)azepan-3-yl)cyclopropane-1-carboxamide], the IC50 was more than 100 µM.
In the case of `C[C@H]1CCN(c2nnn[nH]2)C[C@@H](NC(=O)C2(c3ccc(C(F)F)cc3)CC2)C1` (single isomer, unassigned) [5D*, 1-(4-(difluoromethyl)phenyl)-N-(5-methyl-1-(1H-tetrazol-5-yl)azepan-3-yl)cyclopropane-1-carboxamide], the IC50 lay in the range of 10 to 50 µM.
As to `Cc1cc(C2(C(=O)N[C@@H]3C[C@H](C)CCN(c4nnn[nH]4)C3)CC2)ccc1C(F)(F)F` (single isomer, unassigned) [6A*, N-(5-methyl-1-(1H-tetrazol-5-yl)azepan-3-yl)-1-(3-methyl-4-(trifluoromethyl)phenyl)cyclopropane-1-carboxamide], the IC50 fell in the range of 1 to 10 µM.
As for `Cc1cc(C2(C(=O)N[C@H]3C[C@H](C)CCN(c4nnn[nH]4)C3)CC2)ccc1C(F)(F)F` (single isomer, unassigned) [6B*, N-(5-methyl-1-(1H-tetrazol-5-yl)azepan-3-yl)-1-(3-methyl-4-(trifluoromethyl)phenyl)cyclopropane-1-carboxamide], the IC50 fell in the range of 50 to 100 µM.

The values above are taken from US20260007684A1, “AMIDE DERIVATIVES FOR INHIBITING NLRP3 AND USES THEREOF” (Ventus Therapeutics U.S., Inc., priority 2023, published 2026).
